14 compounds from patent US10071992B2, “Diacylglycerol acyl transferase 2 inhibitors” (Pfizer Inc., priority 2016, dated 2018) can be followed below.

One series addresses human DGAT2 (hDGAT2) (Homo sapiens (Human), UniProt Q96PD7). In words: In vitro DGAT2 assay, determination of IC50 values for DGAT2 inhibitors. The format is biochemical. The protocol:
Recombinant baculovirus for the FLAG-tagged hDGAT2 was generated in SF9 insect cells using Bac-to-Bac baculovirus expression system (Invitrogen) according to the manufacturer's protocol. For the expression of hDGAT2, SF9 cells (20 L) grown in Sf90011 media were infected with hDGAT2 baculovirus at a multiplicity of infection of 1 in a Wave Bioreactor System 20/50P wave bag (GE Healthcare). After 40 hours of infection, the cells were then harvested by centrifugation at 5,000×g. The cell pellets were washed by resuspending in phosphate buffered saline (PBS) and collected by centrifugation at 5,000×g. The cell paste was flash frozen in liquid N2 and stored at −80° C. until needed. All operations below were at 4° C. unless otherwise noted. The cells were resuspended in lysis buffer (50 mM Tris-HCl, pH 8.0, 250 mM sucrose) including 1 mM ethylenediaminetetraacetic acid (EDTA) and the complete protease inhibitor cocktail (Roche Diagnostics) at a ratio of 3 ml buffer per 1 g cell paste. The cells were lysed by dounce homogenizer. The cell debris was removed by centrifugation at 1,000×g for 20 min, and the supernatant was centrifuged at 100,000×g for 1 hour. The resulting pellet was rinsed three times by filling ultracentrifuge tubes to the top with ice cold PBS before decanting. The washed pellet was resuspended with gentle stirring for 1 hour in lysis buffer containing 8 mM 3-[(3-cholamidopropyl)dimethylammonio]-1-propanesulfonate (CHAPS) at a ratio of 1 mL buffer per 1 g of original cell paste and centrifuged again at 100,000×g for 1 hour. The resulting supernatant was aliquotted, flash frozen in liquid N2, and stored at −80° C. until use.
To 1 μL of compounds dissolved in 100% DMSO and spotted at the bottom of each well, 5 μL of 0.04% bovine serum albumin (BSA) (fatty acid free, Sigma Aldrich) was added and the mixture was incubated at room temperature for 15 minutes. hDGAT2 membrane fractions were diluted in 100 mM Hepes-NaOH, pH 7.4, 20 mM MgCl2 containing 200 nM methyl arachidonyl fluorophosphonate (Cayman Chemical; dried from ethyl acetate stock solution under argon gas and dissolved in DMSO as 5 mM stock). 10 μL of this enzyme working solution was added to the plates and incubation continued for 2 hours at room temperature. DGAT2 reactions were initiated by the addition of 4 μL of substrates containing 30 μM [1-^14C]decanoyl-CoA (custom-synthesized by Perkin Elmer, 50 mCi/mmol) and 125 μM 1,2-didecanoyl-sn-glycerol (Avanti Polar Lipids) dissolved in 12.5% acetone. The reaction mixtures were incubated at room temperature for 40 min and the reactions were stopped by addition of 5 μL of 1% H3PO4. After the addition of 45 μL MicroScint-E (Perkin-Elmer), plates were sealed with Top Seal-A covers (Perkin-Elmer) and phase partitioning of substrates and products was achieved using a HT-91100 microplate orbital shaker (Big Bear Automation, Santa Clara, Calif.). Plates were centrifuged at 2,000×g for 1 minute in an Allegra 6R Centrifuge (Beckman Coulter) and then were sealed again with fresh covers before reading in a 1450 Microbeta Wallac Trilux Scintillation Counter (Perkin Elmer). DGAT2 activity was measured by quantifying the generated product [^14C]tridecanoylglycerol in the upper organic phase.
Inhibitors were tested at eleven different concentrations to generate IC50 values for each compound.

The nature of series [1]: Metabolic clearance in HLM (hepatic clearance profile). The format is in vitro ADME. The note with it: human, human liver microsomes, read-out: Clint, app in HLM. Background: Liver microsomes are a subcellular fraction often used to study metabolism.
The next series has as its target DGAT2 (Homo sapiens (Human), UniProt Q96PD7). Description: IC50 values for DGAT2 inhibitors in human hepatocytes. The series is classed as cell-based. To be noted: geometric mean, N=10; cryopreserved human hepatocytes, DGAT1 inhibitor at 3 μM present, [1,3-14C]-glycerol incorporation. The protocol:
After 24 hours overnight recovery period, the cells were overlayed with media containing 250 μg/ml Matrigel (BD Biosciences, San Jose, Calif.). The following day, media was aspirated and replaced with serum-free Williams Media E (Life Technologies, Grand Island, N.Y.) containing 400 μM sodium dodecanoate (Sigma-Aldrich, St. Louis, Mo.). […] After separation, radiolabeled lipids were visualized using a Molecular Dynamics' PhosphorImager system.

[2] abbreviates: geometric mean, hDGAT2 membrane fraction, [1-14C]decanoyl-CoA and 1,2-didecanoyl-sn-glycerol.
The mark [3] stands for this setting: Table 3, comparison with WO2015140658 Example 19.21.

Molecules are shown by their SMILES.

Sequence of human DGAT2 (hDGAT2) (Q96PD7 whole entry): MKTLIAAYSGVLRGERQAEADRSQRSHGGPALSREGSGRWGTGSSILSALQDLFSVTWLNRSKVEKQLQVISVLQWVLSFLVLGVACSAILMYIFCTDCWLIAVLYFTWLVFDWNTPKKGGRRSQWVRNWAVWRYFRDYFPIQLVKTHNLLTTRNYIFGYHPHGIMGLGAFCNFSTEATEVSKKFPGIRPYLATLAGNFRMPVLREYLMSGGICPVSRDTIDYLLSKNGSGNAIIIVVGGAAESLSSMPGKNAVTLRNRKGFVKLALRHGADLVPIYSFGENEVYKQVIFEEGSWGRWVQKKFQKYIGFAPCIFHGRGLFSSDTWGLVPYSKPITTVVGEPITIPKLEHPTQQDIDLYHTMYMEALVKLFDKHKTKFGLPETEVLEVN
Sequence of DGAT2 (Q96PD7 whole entry): as above

On to `CCOc1cccnc1Oc1cncc(-c2ncc(C(=O)NC(C)(C)CS(C)(=O)=O)cn2)c1` [Example 3.6, 2-(5-((3-ethoxypyridin-2-yl)oxy)pyridin-3-yl)-N-(2-methyl-1-(methylsulfonyl)propan-2-yl)pyrimidine-5-carboxamide], for which, on human DGAT2 (hDGAT2) (setting [2]), the concentration for half-maximal inhibition (IC50) (usually the concentration that gives 50% inhibition) is 35.4 nM. In the case of `CCOc1cccnc1Oc1cncc(-c2ncc(C(=O)NC3CCS(=O)(=O)C3)cn2)c1` (centres unmarked) [Example 3.3, N-(1,1-dioxidotetrahydrothiophen-3-yl)-2-(5-((3-ethoxypyridin-2-yl)oxy)pyridin-3-yl)pyrimidine-5-carboxamide], inhibition against human DGAT2 (hDGAT2) (setting [2]) was half-maximal at 196 nM (IC50). On the same count and under the same terms, then `CCOc1cc(F)cnc1Oc1cncc(-c2ncc(C(=O)N[C@H]3CCOC3)cn2)c1` [Example 8, (S)-2-(5-((3-Ethoxy-5-fluoropyridin-2-yl)oxy)pyridin-3-yl)-N-(tetrahydrofuran-3-yl)pyrimidine-5-carboxamide], with 3.7 nM.

For the compound `CCOc1nccnc1Oc1cncc(-c2ncc(C(=O)NC(C)(C)CO)cn2)c1` [Example 3.5, 2-(5-((3-ethoxypyrazin-2-yl)oxy)pyridin-3-yl)-N-(1-hydroxy-2-methylpropan-2-yl)pyrimidine-5-carboxamide], the 50% inhibitory concentration (IC50) on human DGAT2 (hDGAT2) (setting [2]) was 238 nM.

On to `CCOc1cccnc1Oc1cncc(-c2ncc(C(=O)NC(C)(C)C#N)cn2)c1` [Example 4, N-(2-cyanopropan-2-yl)-2-(5-((3-ethoxypyridin-2-yl)oxy)pyridin-3-yl)pyrimidine-5-carboxamide], for which the midpoint of inhibition against human DGAT2 (hDGAT2) (setting [2]), the IC50, lay at 7.4 nM. Still for that read-out and setting: the same measure for `CCOc1cccnc1Oc1cncc(-c2ncc(C(=O)NC(C)(C)CO)nn2)c1` [Example 7, 3-{5-[(3-ethoxypyridin-2-yl)oxy]pyridin-3-yl}-N-(1-hydroxy-2-methylpropan-2-yl)-1,2,4-triazine-6-carboxamide]: 83 nM; for `CCOc1cccnc1Oc1cncc(-c2ncc(C(=O)NC3(C)CCS(=O)(=O)C3)cn2)c1` (centres unmarked) [Example 3.1, 2-(5-((3-ethoxypyridin-2-yl)oxy)pyridin-3-yl)-N-(3-methyl-1,1-dioxidotetrahydrothiophen-3-yl)pyrimidine-5-carboxamide]: 13.5 nM; for `CCOc1cccnc1Oc1cncc(-c2ncc(C(=O)N[C@H]3CCOC3)nn2)c1` [Example 3.4, (S)-3-(5-((3-ethoxypyridin-2-yl)oxy)pyridin-3-yl)-N-(tetrahydrofuran-3-yl)-1,2,4-triazine-6-carboxamide]: 181 nM.

Consider `CCOc1ccccc1O[C@@H]1CCCN(c2ncc(C(=O)NC(C)(C)CO)cn2)C1` [WO2015140658 Example 19.21, reference compound], for which the IC50 against human DGAT2 (hDGAT2) (setting [3]) came out at 7.9 nM. Also, the microsomal CLint in series [1] came to 121 µL/min/mg. At human DGAT2 (hDGAT2) (setting [2]), `CCOc1cccnc1Oc1cncc(-c2ncc(C(=O)N[C@@H]3CCOC3)cn2)c1` [Example 2, (R)-2-(5-((3-Ethoxypyridin-2-yl)oxy)pyridin-3-yl)-N-(tetrahydrofuran-3-yl)pyrimidine-5-carboxamide] registered an IC50 of 200 nM.

At human DGAT2 (hDGAT2) (setting [2]), `O=C(N[C@H]1CCOC1)c1cnc(-c2cncc(Oc3ncccc3OCCF)c2)nc1` [Example 3.7, (S)-2-(5-((3-(2-fluoroethoxy)pyridin-2-yl)oxy)pyridin-3-yl)-N-(tetrahydrofuran-3-yl)pyrimidine-5-carboxamide] displayed an IC50 of 66.5 nM.

Consider `CCOc1cccnc1Oc1cncc(-c2ncc(C(=O)NC(C)(CO)CO)cn2)c1` [Example 3.2, N-(1,3-dihydroxy-2-methylpropan-2-yl)-2-(5-((3-ethoxypyridin-2-yl)oxy)pyridin-3-yl)pyrimidine-5-carboxamide], for which, at human DGAT2 (hDGAT2) (setting [2]), the half-maximal inhibitory concentration (IC50) was found to be 83.6 nM. At DGAT2, `CCOc1cccnc1Oc1cncc(-c2ncc(C(=O)N[C@H]3CCOC3)cn2)c1` [Example 1, (S)-2-(5-((3-ethoxypyridin-2-yl)oxy)pyridin-3-yl)-N-(tetrahydrofuran-3-yl)pyrimidine-5-carboxamide] returned an IC50 of 2.8 nM. Take `CCOc1cccnc1Oc1cncc(-c2ncc(C(=O)NC(C)(C)CO)cn2)c1` [Example 5, 2-(5-((3-Ethoxypyridin-2-yl)oxy)pyridin-3-yl)-N-(1-hydroxy-2-methylpropan-2-yl)pyrimidine-5-carboxamide]: the IC50 at human DGAT2 (hDGAT2) (setting [3]) and against human DGAT2 (hDGAT2) (setting [2]) was 14 nM in each case. The microsomal CLint in series [1] was determined as 18 µL/min/mg.
